The source of these data is paper PMC5589576, “Targeting the apoptotic Mcl-1-PUMA interface with a dual-acting compound” (Oncotarget, 2017).

The term Ki denotes a measure of affinity in units of concentration, obtained from inhibition or displacement. A higher Ki goes with a looser hold on the target. In general, IC50 refers to the concentration at which inhibition is half-maximal.

The target of experiment [1] is T1, Mcl-1N241A (Homo sapiens, UniProt Q07820, N260A).
T1 construct: implied by Ni2+-NTA purification from pET-43.1a(+)); made in house; host or cells: E. coli BL21
Briefly: FPA competition assay, mutant Mcl-1 N241A. The class given is binding. The procedure: 1 protein was induced by 0.6 mM IPTG for 20 h in the Flow cytometry condition of 20°C, 160 rpm. The strains were harvested by centrifugation (6000 rpm, 10 min, 4°C) and broken Tested cells (A2780, MCF-7 and SMMC-7721) by ultrasonication (10 s operation and 10 s stop, 5 min). were plated in 6-well plates (1×10^5 cells/well) and treated […]
All cells were detached by trypsin and washed manufacturer ’s instructions. The purified Mcl-1 was (three times) by precooled PBS. The resuspended cells analyzed by 15% SDS-PAGE and dialyzed against 10 mM were stained by Annexin V-FITC and PI in sequence PBS (pH 7.4) before being stored under −80°C for later use. before being detected by flow cytometry.
FPA competition assays The FITC labelled
BH3 peptide of Mcl-1 (FITC-Mcl-BH3, FITC-AHx-Western blot analysis […]
and used as fluorescence probe in the FPA competition A2780, MCF-7 and SMMC-7721 cells treated with assays. All assays were performed in the assay and without Comp8 were harvested, washed by precooled

Experiment [2] relates to A2780, MCF-7 and SMMC-7721. Briefly: MTT test, three cancer cell lines together. The following applies: on A2780, MCF-7 and SMMC-7721, range over the three lines. The format is cell-based. The procedure:
(Nunc). To check the interference effects of candidate membranes. […]
Microplate Spectrophotometer with excitation wavelength (Boster). being 432 nm. The IC50 calculations were performed by Graphpad Prism 5 (Graphpad software, Inc.). Key residues discovery
Tests of candidate compounds on suppressing In the present study, key residues involved in the […]
by using site-directed mutagenesis and FPA competition
Cell lines including A2780, MCF-7 and SMMC- assays in combination. According to the results of pairwise 7721 were cultured to the logarithmic growth phase per-residue free energy decomposition, the residues in 3 ml complete media (RPMI1640 plus 10%FBS), contributing a lot to the binding of PUMA/Comp8 to 4 Mcl-1 were subjected to site-directed mutagenesis. By respectively. After adjusting their concentrations to 5×10 reference to the primers listed in Supplementary Table5, cells/ml with complete media, these cell lines were plated overlapping extension PCR was conducted to realize into 96-well, transparent, flat-bottom plates (150 μl/well), site-directed mutagenesis. After verified by gene each point was prepared in three replicates. The density sequencing, the individually mutated PCR products were of cultured cell lines was evaluated by MTT tests. When cloned into the expressing vector pET-43.1a (+). […]
(In general: Formazan colour is commonly taken as a measure of viable cells.)

T1 sequence (Q07820 172-327 N260A): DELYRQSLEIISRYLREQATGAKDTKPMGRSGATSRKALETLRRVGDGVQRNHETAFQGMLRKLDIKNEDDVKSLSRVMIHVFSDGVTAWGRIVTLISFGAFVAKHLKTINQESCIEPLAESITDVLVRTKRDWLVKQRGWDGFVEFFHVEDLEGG

In turn, `O=C1N=C(N2CCN(CCO)CC2)S/C1=C\c1ccc(-c2ccccc2)cc1` [Comp8] showed a Ki in experiment [1] of 1.95 ± 0.45 µM. In experiment [2], the half-inhibitory concentration (IC50) lay within 20 to 50 µM.
